From PMC9532562 (Acta Pharmaceutica Sinica. B, 2022) come the findings set out here.

For orientation: IC50 means the concentration that gives 50% inhibition. A high value points to weaker potency in that assay.

Targets include HDAC2 (Homo sapiens, UniProt Q92769); HDAC1 (Homo sapiens, UniProt Q13547); HDAC9 (Homo sapiens, UniProt Q9UKV0); HDAC5 (Homo sapiens, UniProt Q9UQL6); HDAC4 (Homo sapiens, UniProt P56524); HDAC3 (Homo sapiens, UniProt O15379).
Holding throughout (experiment): HDAC enzyme inhibition assay
Holding throughout (assay type): biochemical

For a further experiment, the target named is T1, HDAC11 (Homo sapiens, UniProt Q96DB2).
T1 sequence (Q96DB2 1-347): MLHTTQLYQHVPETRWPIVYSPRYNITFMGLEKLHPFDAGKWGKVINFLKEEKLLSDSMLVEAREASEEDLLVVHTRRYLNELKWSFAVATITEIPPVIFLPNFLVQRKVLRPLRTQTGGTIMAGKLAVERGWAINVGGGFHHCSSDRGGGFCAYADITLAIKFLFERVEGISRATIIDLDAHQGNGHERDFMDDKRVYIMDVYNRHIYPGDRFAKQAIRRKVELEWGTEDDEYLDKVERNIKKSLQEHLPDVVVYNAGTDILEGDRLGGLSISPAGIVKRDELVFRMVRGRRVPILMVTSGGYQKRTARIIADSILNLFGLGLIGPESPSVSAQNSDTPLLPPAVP

In another experiment the target is T2, HDAC10 (Homo sapiens, UniProt Q969S8).
T2 sequence (Q969S8 1-669): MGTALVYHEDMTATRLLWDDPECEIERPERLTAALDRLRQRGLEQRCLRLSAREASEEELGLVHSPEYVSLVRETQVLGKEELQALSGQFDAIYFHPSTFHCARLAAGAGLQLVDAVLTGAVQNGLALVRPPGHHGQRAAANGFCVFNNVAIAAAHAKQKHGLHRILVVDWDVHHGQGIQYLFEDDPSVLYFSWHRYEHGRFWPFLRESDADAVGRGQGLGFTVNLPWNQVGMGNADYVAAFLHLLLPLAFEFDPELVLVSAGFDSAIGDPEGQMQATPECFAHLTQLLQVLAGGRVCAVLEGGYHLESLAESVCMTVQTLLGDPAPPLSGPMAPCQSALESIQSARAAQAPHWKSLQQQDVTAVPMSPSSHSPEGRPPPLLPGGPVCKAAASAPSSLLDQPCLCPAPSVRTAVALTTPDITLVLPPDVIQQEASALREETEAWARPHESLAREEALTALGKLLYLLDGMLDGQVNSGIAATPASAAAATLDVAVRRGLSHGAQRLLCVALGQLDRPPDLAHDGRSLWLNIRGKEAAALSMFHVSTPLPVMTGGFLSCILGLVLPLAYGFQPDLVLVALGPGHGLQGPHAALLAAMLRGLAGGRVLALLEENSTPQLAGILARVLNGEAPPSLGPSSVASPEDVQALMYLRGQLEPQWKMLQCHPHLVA

For another experiment, the target named is T3, HDAC6 (Homo sapiens, UniProt Q9UBN7).
T3 sequence (Q9UBN7 1-1215): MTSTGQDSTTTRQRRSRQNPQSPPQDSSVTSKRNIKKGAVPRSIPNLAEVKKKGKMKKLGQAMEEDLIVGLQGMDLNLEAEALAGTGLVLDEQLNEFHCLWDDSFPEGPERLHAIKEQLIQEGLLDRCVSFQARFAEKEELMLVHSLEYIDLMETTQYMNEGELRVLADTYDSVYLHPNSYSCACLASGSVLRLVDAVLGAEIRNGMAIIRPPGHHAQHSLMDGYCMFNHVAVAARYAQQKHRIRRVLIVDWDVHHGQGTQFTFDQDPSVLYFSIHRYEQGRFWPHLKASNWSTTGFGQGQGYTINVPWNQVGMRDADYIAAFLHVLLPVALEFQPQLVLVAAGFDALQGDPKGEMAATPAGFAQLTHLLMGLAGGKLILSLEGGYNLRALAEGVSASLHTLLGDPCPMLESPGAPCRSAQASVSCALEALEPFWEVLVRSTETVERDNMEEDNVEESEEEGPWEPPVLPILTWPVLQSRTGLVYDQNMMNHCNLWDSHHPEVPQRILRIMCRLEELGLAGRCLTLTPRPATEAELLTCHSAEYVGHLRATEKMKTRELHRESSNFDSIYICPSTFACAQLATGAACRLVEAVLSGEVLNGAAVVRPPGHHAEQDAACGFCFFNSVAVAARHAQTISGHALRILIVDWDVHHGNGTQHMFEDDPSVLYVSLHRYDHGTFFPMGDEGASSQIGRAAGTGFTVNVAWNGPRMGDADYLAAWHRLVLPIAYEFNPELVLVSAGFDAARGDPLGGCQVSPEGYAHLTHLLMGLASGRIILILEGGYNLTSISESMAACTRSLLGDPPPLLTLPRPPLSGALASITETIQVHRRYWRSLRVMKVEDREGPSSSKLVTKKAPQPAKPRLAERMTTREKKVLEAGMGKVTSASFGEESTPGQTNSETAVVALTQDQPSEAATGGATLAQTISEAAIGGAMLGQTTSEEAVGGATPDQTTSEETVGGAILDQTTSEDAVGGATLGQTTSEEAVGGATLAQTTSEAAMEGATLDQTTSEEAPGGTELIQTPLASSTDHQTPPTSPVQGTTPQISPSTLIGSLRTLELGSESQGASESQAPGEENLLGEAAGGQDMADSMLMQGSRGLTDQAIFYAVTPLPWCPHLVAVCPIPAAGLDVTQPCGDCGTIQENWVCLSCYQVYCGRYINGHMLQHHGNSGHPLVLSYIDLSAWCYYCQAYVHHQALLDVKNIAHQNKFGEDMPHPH

The next experiment has as its target T4, HDAC8 (Homo sapiens, UniProt Q9BY41).
T4 sequence (Q9BY41 1-377): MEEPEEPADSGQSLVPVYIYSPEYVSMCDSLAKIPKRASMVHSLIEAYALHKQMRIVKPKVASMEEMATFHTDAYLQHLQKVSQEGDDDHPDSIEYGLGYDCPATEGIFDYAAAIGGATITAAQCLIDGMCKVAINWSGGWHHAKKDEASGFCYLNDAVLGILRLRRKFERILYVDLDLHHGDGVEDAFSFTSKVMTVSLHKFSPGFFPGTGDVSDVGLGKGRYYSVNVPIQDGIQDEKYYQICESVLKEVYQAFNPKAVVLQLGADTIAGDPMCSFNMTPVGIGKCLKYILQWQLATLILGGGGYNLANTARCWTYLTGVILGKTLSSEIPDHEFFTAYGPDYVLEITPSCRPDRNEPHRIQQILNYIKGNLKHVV

Bounds are passed on as bounds.

Chain of HDAC2 (Q92769 whole entry): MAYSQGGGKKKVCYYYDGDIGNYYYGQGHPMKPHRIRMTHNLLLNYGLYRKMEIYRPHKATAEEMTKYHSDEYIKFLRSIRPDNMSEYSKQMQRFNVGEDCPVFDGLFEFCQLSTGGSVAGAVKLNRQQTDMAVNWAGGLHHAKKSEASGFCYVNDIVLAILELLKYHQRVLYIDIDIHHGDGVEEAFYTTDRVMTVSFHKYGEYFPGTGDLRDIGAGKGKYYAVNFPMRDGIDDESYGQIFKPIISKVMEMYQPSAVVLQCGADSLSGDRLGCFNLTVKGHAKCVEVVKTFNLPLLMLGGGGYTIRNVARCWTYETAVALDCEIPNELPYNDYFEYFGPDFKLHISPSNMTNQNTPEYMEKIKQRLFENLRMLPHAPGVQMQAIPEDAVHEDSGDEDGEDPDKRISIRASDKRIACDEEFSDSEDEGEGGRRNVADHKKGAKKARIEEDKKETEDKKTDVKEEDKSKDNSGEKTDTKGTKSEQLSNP
Chain of HDAC4 (P56524 whole entry): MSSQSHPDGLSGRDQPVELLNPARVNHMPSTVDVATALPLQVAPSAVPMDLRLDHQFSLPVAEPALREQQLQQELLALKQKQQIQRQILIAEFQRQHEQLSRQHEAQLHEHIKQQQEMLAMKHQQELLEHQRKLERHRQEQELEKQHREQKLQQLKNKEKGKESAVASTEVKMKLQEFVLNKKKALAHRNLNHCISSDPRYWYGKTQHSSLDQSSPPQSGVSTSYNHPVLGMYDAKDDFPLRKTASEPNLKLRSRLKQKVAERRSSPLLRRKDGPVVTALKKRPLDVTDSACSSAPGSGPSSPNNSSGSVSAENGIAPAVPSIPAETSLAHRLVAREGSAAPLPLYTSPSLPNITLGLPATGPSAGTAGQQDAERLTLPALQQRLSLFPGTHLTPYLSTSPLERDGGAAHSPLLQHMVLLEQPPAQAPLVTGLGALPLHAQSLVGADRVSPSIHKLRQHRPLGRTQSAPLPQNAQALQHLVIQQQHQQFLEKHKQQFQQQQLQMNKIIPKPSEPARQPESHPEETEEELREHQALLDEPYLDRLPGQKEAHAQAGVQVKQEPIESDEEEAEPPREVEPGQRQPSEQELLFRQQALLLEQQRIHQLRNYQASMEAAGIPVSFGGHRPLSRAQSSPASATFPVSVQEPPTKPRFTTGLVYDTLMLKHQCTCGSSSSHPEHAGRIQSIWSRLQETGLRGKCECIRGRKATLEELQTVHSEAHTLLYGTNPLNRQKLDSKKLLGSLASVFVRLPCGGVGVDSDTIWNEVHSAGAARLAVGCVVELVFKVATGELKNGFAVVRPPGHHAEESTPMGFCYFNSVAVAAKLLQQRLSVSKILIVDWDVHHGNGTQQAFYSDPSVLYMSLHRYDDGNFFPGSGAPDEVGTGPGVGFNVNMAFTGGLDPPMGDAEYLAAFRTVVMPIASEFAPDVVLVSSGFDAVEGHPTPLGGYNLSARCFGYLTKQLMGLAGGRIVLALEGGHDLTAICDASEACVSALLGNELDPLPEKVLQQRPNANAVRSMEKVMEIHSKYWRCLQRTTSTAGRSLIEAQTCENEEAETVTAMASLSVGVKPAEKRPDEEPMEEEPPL
Chain of HDAC1 (Q13547 whole entry): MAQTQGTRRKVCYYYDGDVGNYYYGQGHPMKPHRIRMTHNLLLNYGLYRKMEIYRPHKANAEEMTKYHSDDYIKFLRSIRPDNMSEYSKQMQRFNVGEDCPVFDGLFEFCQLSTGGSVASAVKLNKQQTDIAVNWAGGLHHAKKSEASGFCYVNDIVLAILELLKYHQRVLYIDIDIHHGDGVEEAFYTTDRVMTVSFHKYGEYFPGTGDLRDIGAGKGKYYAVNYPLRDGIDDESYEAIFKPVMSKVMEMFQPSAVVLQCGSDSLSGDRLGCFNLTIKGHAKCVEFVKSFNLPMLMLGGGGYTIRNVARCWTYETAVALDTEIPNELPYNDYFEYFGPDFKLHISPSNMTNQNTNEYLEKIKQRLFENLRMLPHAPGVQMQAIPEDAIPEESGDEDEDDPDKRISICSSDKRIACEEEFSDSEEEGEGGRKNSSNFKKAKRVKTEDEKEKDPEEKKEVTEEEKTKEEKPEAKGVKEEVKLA
Chain of HDAC9 (Q9UKV0 whole entry): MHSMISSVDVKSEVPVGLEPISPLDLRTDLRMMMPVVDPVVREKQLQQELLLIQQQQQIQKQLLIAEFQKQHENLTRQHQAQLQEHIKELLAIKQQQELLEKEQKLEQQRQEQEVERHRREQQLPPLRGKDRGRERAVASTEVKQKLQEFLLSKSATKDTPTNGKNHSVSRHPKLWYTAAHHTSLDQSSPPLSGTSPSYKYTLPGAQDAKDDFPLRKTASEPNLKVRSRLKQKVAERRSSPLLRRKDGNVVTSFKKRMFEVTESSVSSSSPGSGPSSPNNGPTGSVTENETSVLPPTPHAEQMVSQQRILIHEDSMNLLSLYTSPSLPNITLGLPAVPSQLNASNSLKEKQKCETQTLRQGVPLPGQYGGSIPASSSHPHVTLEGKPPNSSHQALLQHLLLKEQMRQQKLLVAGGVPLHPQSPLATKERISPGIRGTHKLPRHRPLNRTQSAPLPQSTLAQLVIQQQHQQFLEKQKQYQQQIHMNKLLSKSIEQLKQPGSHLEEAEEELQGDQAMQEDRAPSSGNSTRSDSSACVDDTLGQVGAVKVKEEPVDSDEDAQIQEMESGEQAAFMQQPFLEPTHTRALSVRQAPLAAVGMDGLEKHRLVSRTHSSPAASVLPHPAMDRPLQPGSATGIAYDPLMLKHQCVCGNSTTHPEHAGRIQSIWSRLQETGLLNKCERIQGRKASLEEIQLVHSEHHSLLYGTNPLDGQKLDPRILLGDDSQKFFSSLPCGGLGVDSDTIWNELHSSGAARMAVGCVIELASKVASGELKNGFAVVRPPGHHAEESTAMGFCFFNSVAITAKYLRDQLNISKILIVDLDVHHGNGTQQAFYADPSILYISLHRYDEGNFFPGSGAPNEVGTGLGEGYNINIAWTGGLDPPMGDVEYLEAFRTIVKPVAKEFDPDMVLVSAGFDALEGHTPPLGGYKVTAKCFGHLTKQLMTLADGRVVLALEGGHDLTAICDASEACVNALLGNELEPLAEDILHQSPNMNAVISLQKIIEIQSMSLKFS
Chain of HDAC5 (Q9UQL6 whole entry): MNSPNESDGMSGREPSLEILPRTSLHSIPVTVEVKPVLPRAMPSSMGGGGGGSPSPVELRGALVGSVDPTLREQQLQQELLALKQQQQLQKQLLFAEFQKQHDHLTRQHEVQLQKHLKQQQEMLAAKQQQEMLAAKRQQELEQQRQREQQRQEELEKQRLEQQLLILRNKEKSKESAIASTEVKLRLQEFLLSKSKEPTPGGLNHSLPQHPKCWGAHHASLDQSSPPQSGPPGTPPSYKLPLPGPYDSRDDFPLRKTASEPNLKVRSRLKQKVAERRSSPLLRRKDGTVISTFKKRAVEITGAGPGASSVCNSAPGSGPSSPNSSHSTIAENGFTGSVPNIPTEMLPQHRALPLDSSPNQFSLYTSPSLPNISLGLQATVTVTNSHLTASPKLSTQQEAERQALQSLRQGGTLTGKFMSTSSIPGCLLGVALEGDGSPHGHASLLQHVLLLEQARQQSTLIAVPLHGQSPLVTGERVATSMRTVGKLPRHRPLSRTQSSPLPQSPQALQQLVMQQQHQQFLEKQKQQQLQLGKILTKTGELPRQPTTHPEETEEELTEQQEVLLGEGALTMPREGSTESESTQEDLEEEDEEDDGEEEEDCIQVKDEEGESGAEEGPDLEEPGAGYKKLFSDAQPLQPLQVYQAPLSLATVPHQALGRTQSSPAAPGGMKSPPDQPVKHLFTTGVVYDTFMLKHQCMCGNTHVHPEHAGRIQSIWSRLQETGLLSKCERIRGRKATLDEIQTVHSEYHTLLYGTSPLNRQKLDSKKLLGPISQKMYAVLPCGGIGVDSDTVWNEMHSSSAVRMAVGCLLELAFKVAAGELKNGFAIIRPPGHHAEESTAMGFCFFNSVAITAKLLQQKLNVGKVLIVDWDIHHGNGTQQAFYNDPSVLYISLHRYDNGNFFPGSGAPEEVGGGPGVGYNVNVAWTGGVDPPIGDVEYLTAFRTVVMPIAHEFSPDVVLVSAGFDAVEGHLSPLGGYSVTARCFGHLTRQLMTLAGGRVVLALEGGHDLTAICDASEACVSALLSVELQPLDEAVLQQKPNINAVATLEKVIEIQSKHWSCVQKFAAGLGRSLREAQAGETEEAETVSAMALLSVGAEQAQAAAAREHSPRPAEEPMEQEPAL
Chain of HDAC3 (O15379 whole entry): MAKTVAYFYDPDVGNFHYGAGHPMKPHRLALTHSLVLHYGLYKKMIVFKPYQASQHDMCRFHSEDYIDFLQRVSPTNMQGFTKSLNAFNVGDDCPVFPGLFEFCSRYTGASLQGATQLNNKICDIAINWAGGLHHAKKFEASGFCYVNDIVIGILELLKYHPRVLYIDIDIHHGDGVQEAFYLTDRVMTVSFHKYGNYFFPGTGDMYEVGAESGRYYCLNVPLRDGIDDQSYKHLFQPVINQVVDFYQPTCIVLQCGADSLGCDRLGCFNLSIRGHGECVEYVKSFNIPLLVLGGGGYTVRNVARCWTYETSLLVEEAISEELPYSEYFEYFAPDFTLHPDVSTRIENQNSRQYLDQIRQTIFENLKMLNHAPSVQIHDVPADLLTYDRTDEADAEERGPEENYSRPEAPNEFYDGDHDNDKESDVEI
Chain of HDAC3 (Q9Y618 395-489 partner limits assumed): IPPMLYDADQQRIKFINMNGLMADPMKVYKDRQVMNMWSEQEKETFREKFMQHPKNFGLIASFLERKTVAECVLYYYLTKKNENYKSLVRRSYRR

For `COc1cc(CN2CCCCc3ccccc32)ccc1C(=O)NO` [15b, N-Hydroxy2-methoxy-4-((2,3,4,5-tetrahydro-1H-benzo[b]azepin-1-yl)methyl)benzamide], the IC50 is 3.52 µM on HDAC11; above 10 µM on HDAC10; above 10 µM on HDAC2; 4.16 µM on HDAC6; above 10 µM against HDAC1; above 10 µM against HDAC9. Also, the IC50 against HDAC5 is above 10 µM; at HDAC8, 2.06 µM; against HDAC4 it was above 10 µM; against HDAC3 it was above 10 µM.
